What all share (type): cell-based
Test [1] has as its target T1, vanilloid receptor 1 (VR1/TRPV1) of the rat species (Rattus norvegicus, UniProt O35433).
T1 construct: The spinal column is removed from decapitated rats; from tissue; host or cells: primary cells dissociated from rat dorsal root ganglia
Description: FLIPR Ca2+ influx assay on rat dorsal root ganglia cells (pharmacological method I). The method, boiled down: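 Primary rat dorsal root ganglion cells loaded with 2 μM Fluo-4, Ca2+ influx read on FLIPR as peak fluorescence. Triplicates, at least 3 independent experiments.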

Another test concerns the target T2, vanilloid receptor (VR1) (Homo sapiens, UniProt Q8NER1).
T2 construct: expressed in transfected cells; host or cells: CHO K1 cells (ECACC), stably transfected
The experiment in a line: FLIPR Ca2+ influx assay on CHO K1 cells transfected with the VR1 gene (pharmacological method II).

The target in a further test is VR1/TRPV1 receptor (Homo sapiens, UniProt Q8NER1). Description: IC50 (human) after pH stimulus. The following applies: for inhibition at 1 µM: ne = no effect.
Sequence of VR1/TRPV1 receptor (Q8NER1 whole entry): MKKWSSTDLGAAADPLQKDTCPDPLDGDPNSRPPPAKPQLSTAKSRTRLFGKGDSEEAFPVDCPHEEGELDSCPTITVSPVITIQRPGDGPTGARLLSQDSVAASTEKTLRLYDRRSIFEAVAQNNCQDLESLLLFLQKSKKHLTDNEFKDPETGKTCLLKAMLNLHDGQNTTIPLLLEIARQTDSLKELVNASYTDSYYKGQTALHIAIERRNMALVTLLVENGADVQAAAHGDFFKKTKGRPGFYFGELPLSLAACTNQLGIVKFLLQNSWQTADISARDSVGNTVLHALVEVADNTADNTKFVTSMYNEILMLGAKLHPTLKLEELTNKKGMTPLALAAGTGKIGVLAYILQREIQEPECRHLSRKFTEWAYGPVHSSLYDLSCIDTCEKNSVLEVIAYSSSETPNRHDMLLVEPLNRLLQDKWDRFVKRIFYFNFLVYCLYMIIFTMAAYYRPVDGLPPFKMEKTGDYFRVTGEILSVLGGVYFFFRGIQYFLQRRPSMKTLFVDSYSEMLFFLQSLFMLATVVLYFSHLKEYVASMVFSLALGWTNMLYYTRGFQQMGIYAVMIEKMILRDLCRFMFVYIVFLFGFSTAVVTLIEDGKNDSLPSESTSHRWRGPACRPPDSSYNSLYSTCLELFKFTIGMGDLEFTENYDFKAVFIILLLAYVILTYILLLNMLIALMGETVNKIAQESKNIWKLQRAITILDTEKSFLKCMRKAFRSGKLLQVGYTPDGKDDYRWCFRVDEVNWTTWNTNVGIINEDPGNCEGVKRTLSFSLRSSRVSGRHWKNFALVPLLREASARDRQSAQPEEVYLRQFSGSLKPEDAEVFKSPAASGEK
[2] abbreviates: Ki (rat) Cap., table 4, capsaicin.
Setting [3] is: table 4, capsaicin, read-out: Ki (human) Cap.
The mark [4] stands for this setting: read-out: inhibition in percent, IC50 (human) after pH stimulus.
[5] abbreviates: table 4, capsaicin, read-out: Ki (rat) Cap.

SMILES strings stand for the structures. Read-outs that look alike come from different tables or passages of the source.

T1 sequence (O35433 whole entry): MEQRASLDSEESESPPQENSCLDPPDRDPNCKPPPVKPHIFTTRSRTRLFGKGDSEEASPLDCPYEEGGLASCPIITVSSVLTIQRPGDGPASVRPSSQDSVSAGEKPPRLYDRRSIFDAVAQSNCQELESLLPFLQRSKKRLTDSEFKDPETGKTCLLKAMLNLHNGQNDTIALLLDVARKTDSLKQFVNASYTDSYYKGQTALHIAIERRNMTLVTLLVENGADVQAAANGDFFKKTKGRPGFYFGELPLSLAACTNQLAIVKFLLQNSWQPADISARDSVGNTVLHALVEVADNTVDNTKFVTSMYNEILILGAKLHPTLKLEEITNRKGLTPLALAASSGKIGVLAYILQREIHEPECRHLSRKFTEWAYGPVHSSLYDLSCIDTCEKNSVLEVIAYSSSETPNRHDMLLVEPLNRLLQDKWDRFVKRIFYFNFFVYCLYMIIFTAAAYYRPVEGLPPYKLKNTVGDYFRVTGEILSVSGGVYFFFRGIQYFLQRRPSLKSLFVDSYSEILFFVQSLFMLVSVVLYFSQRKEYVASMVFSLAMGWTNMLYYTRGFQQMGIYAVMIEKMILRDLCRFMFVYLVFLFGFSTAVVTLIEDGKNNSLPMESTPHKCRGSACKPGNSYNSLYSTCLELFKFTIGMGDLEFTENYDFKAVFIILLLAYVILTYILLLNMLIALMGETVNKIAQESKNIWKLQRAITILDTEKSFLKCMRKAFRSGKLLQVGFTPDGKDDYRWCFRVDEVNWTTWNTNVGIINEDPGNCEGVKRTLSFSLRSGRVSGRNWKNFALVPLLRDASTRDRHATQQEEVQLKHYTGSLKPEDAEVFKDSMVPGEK
T2 sequence (Q8NER1 whole entry): as the sequence (Q8NER1 whole entry) above

Take `CC(C(=O)NCc1ccc(C(F)(F)F)nc1OCc1ccccn1)c1ccc(NS(C)(=O)=O)c(F)c1` (centres unmarked) [Example 202, 2-(3-fluoro-4-methylsulfonamido-phenyl)-N-[2-(pyridin-2-ylmethoxy)-6-trifluoromethyl-pyridin-3-ylmethyl]-propionamide]: the figures for the inhibition constant Ki (in test [1] (setting [2]); on vanilloid receptor (VR1) (setting [3])) were 24.8 nM and 29.5 nM, respectively. Further, the inhibition at 0.1 µM on VR1/TRPV1 receptor (setting [4]) was determined as 16%. For the same molecule, the inhibition at 1 µM on VR1/TRPV1 receptor (setting [4]) came out at 30%.
Molecule `CC(C(=O)NCc1ccc(C(F)(F)F)nc1Oc1ccccc1)c1ccc(NS(C)(=O)=O)c(F)c1` (centres unmarked) [Example 198, 2-(3-fluoro-4-methylsulfonamido-phenyl)-N-(2-phenoxy-6-trifluoromethyl-pyridin-3-ylmethyl)-propionamide] displayed a Ki in test [1] (setting [2]) of 0.9 nM. Further, at vanilloid receptor (VR1) (setting [3]), the inhibitory constant (Ki) was determined as 6.4 nM. At VR1/TRPV1 receptor (setting [4]), the inhibition at 0.1 µM is 11% and the inhibition at 1 µM came to 31%.
Consider `CC(C(=O)NCc1ccc(C(F)(F)F)nc1N1CCN(c2ncccc2C(F)(F)F)CC1)c1ccc(NS(C)(=O)=O)c(F)c1` (centres unmarked) [Example 212, 2-(3-fluoro-4-methylsulfonamido-phenyl)-N-{6-trifluoromethyl-2-[4-(3-trifluoromethyl-pyridin-2-yl)-piperazin-1-yl]-pyridin-3-ylmethyl}-propionamide], for which the inhibition constant Ki in test [1] (setting [5]) came out at 3.6 nM. Moreover, on vanilloid receptor (VR1) (setting [3]), the inhibitory constant (Ki) was found to be 4.2 nM. At VR1/TRPV1 receptor (setting [4]), the inhibition at 0.1 µM came out at 11% and the inhibition at 1 µM was 33%.
As for `CC(C(=O)NCc1ccc(C(F)(F)F)nc1-c1ccc2c(c1)OCCO2)c1ccc(NS(C)(=O)=O)c(F)c1` (centres unmarked) [Example 265, N-[2-(2,3-dihydro-benzo[1,4]dioxin-6-yl)-6-trifluoromethyl-pyridin-3-ylmethyl]-2-(3-fluoro-4-methylsulfonamido-phenyl)-propionamide], the Ki in test [1] (setting [5]) amounted to 2.5 nM. Moreover, the Ki at vanilloid receptor (VR1) (setting [3]) turned out to be 5 nM. Also, on VR1/TRPV1 receptor (setting [4]), the inhibition at 0.1 µM stood at 17% and the inhibition at 1 µM is 33%.
Turning to `CCc1ccc(COc2nc(C(F)(F)F)ccc2CNC(=O)C(C)c2ccc(NS(C)(=O)=O)c(F)c2)cc1` (centres unmarked) [Example 242, N-[2-(4-ethyl-benzyloxy)-6-trifluoromethyl-pyridin-3-ylmethyl]-2-(3-fluoro-4-methylsulfonamido-phenyl)-propionamide], the Ki in test [1] (setting [2]) is 1.2 nM; at vanilloid receptor (VR1) (setting [3]), 3.7 nM. The molecule also yielded an IC50 against VR1/TRPV1 receptor (table 4) of 165 nM.
Consider `CC(C(=O)NCc1ccc(C(F)(F)F)nc1OC1CCC1)c1ccc(NS(C)(=O)=O)c(F)c1` (centres unmarked) [Example 156, N-(2-cyclobutoxy-6-trifluoromethyl-pyridin-3-ylmethyl)-2-(3-fluoro-4-methylsulfonamido-phenyl)-propionamide], for which the results for the Ki (in test [1] (setting [2]); on vanilloid receptor (VR1) (setting [3])) were 1.7 nM and 1.4 nM, respectively. The IC50 against VR1/TRPV1 receptor (table 4) is 69.8 nM.
Take `CC(C(=O)NCc1ccc(C(F)(F)F)nc1-c1cccc(Cl)c1)c1ccc(NS(C)(=O)=O)c(F)c1` (centres unmarked) [Example 149, N-[2-(3-chloro-phenyl)-6-trifluoromethyl-pyridin-3-ylmethyl]-2-(3-fluoro-4-methylsulfonamido-phenyl)-propionamide]: the results for the inhibition constant Ki (in test [1] (setting [5]); on vanilloid receptor (VR1) (setting [3])) were 0.7 nM and 0.5 nM, respectively. Besides, at VR1/TRPV1 receptor (table 4), 9.7 nM corresponded to half-maximal inhibition (IC50).
The matching figures for `CCC1CCN(c2cc(C(F)(F)F)ccc2CNC(=O)C(C)c2ccc(NS(C)(=O)=O)c(F)c2)CC1` (centres unmarked) [Example 229, N-[2-(4-ethyl-piperidin-1-yl)-4-trifluoromethyl-benzyl]-2-(3-fluoro-4-methylsulfonamido-phenyl)-propionamide]: 0.7 nM, 0.7 nM and 17.7 nM.
Take `CC(C(=O)NCc1ccc(C(F)(F)Cl)nc1OCc1cccnc1)c1ccc(NS(C)(=O)=O)c(F)c1` (centres unmarked) [Example 181, N-[6-(chloro-difluoro-methyl)-2-(pyridin-3-ylmethoxy)-pyridin-3-ylmethyl]-2-(3-fluoro-4-methylsulfonamido-phenyl)-propionamide]: the Ki in test [1] (setting [5]) stood at 5.6 nM; on vanilloid receptor (VR1) (setting [3]) it was 14.6 nM. Besides, the midpoint of inhibition on VR1/TRPV1 receptor (table 4), the IC50, lay at 1070 nM.
Regarding `CC1CCC(COc2nc(C(F)(F)F)ccc2CNC(=O)C(C)c2ccc(NS(C)(=O)=O)c(F)c2)CC1` (centres unmarked) [Example 271, 2-(3-fluoro-4-methylsulfonamido-phenyl)-N-[2-(4-methyl-cyclohexylmethoxy)-6-trifluoromethyl-pyridin-3-ylmethyl]-propionamide], the figures for the Ki (in test [1] (setting [2]); at vanilloid receptor (VR1) (setting [3])) were 1.1 nM and 1 nM, respectively. On VR1/TRPV1 receptor (table 4), this molecule showed an IC50 of 44.4 nM.
Take `CC(C(=O)NCc1ccc(C(F)(F)F)nc1OCc1ccc(F)cc1)c1ccc(NS(C)(=O)=O)c(F)c1` (centres unmarked) [Example 175, N-[2-(4-fluoro-benzyloxy)-6-trifluoromethyl-pyridin-3-ylmethyl]-2-(3-fluoro-4-methylsulfonamido-phenyl)-propionamide]: the inhibition constant (Ki) is 1.2 nM in test [1] (setting [5]) and 2.5 nM on vanilloid receptor (VR1) (setting [3]). This molecule registered an IC50 on VR1/TRPV1 receptor (table 4) of 25 nM.
The matching figures for `Cc1ccc(N2CCN(c3nc(C(F)(F)F)ccc3CNC(=O)C(C)c3ccc(NS(C)(=O)=O)c(F)c3)CC2)cc1` (centres unmarked) [Example 219, 2-(3-fluoro-4-methylsulfonamido-phenyl)-N-[2-(4-p-tolyl-piperazin-1-yl)-6-trifluoromethyl-pyridin-3-ylmethyl]-propionamide]: 2.4 nM, 3.3 nM and 38.3 nM.
The matching figures for `CC(C(=O)NCc1ccc(C(F)(F)F)nc1-c1ccc(F)c(Cl)c1)c1ccc(NS(C)(=O)=O)c(F)c1` (centres unmarked) [Example 118]: 0.2 nM, 0.2 nM and 7.6 nM.
As for `COc1ccc(N2CCN(c3cc(C(F)(F)F)ccc3CNC(=O)C(C)c3ccc(NS(C)(=O)=O)c(F)c3)CC2)cc1` (centres unmarked) [Example 249, 2-(3-fluoro-4-methylsulfonamido-phenyl)-N-{2-[4-(4-methoxy-phenyl)-piperazin-1-yl]-4-trifluoromethyl-benzyl}-propionamide], the Ki in test [1] (setting [5]) came out at 0.2 nM. Besides, the Ki on vanilloid receptor (VR1) (setting [3]) was 1.6 nM. For the same molecule, at VR1/TRPV1 receptor (setting [4]), the inhibition at 0.1 µM came to 31% and the inhibition at 1 µM came to 70%.
`CC(C(=O)NCc1ccc(C(F)(F)F)nc1OC1Cc2ccccc2C1)c1ccc(NS(C)(=O)=O)c(F)c1` (centres unmarked) [Example 245, 2-(3-fluoro-4-methylsulfonamido-phenyl)-N-[2-(indan-2-yloxy)-6-trifluoromethyl-pyridin-3-ylmethyl]-propionamide]: the inhibitory constant (Ki) in test [1] (setting [2]) came to 1.7 nM. Also, at vanilloid receptor (VR1) (setting [3]), the Ki worked out at 2.7 nM. At VR1/TRPV1 receptor (setting [4]), the inhibition at 0.1 µM was 21% and the inhibition at 1 µM amounted to 74%.
`CC(C(=O)NCc1ccc(C(F)(F)F)cc1N1CCC(Cc2ccccc2)CC1)c1ccc(NS(C)(=O)=O)c(F)c1` (centres unmarked) [Example 231, N-[2-(4-benzyl-piperidin-1-yl)-4-trifluoromethyl-benzyl]-2-(3-fluoro-4-methylsulfonamido-phenyl)-propionamide]: the Ki in test [1] (setting [5]) is 0.8 nM; at vanilloid receptor (VR1) (setting [3]) it was 1.4 nM. The half-maximal inhibitory concentration (IC50) on VR1/TRPV1 receptor (table 4) worked out at 37.6 nM.
On to `CC(C(=O)NCc1ccc(C(F)(F)F)nc1N1CCCC1)c1ccc(NS(C)(=O)=O)c(F)c1` (centres unmarked) [Example 13, 2-(3-fluoro-4-(methylsulfonamido)phenyl)-N-((2-(pyrrolidin-1-yl)-6-(trifluoromethyl)pyridin-3-yl)methyl)propanamide], for which the Ki in test [1] (Table 2, displacement of capsaicin (100 nM), Cheng-Prusoff, read-out: Ki (rat)) stood at 3.8 nM; at vanilloid receptor (VR1) (Table 2, displacement of capsaicin (100 nM), Cheng-Prusoff, read-out: Ki (human)) it was 0.6 nM. At VR1/TRPV1 receptor (Table 2), this molecule had a half-maximal inhibitory concentration (IC50) of 211 nM.
In the case of `CC1CCN(c2nc(C(F)(F)F)ccc2CNC(=O)C(C)c2ccc(NS(C)(=O)=O)cc2)CC1` (centres unmarked) [Example 262, 2-(4-methylsulfonamido-phenyl)-N-(4-methyl-6′-trifluoromethyl-3,4,5,6-tetrahydro-2H-[1,2′]bipyridinyl-3′-ylmethyl)-propionamide], the inhibition constant Ki in test [1] (setting [5]) came to 1.7 nM. Moreover, the Ki at vanilloid receptor (VR1) (setting [3]) turned out to be 1.2 nM. On VR1/TRPV1 receptor (setting [4]), the inhibition at 0.1 µM came out at 6% and the inhibition at 1 µM was determined as 58%.
On to `COCC1CCN(c2nc(C(F)(F)F)ccc2CNC(=O)C(C)c2ccc(NS(C)(=O)=O)c(F)c2)CC1` (centres unmarked) [Example 199, 2-(3-fluoro-4-methylsulfonamido-phenyl)-N-(4-methoxymethyl-6′-trifluoromethyl-3,4,5,6-tetrahydro-2H-[1,2′]bipyridinyl-3′-ylmethyl)-propionamide], for which the inhibition constant (Ki) in test [1] (setting [5]) was 1.6 nM; on vanilloid receptor (VR1) (setting [3]), 1.4 nM. At VR1/TRPV1 receptor (table 4), this molecule showed an IC50 of 31 nM.
In the case of `CC(C(=O)NCc1ccc(C(F)(F)F)nc1N1CCC(OC(=O)C(C)(C)C)CC1)c1ccc(NS(C)(=O)=O)c(F)c1` (centres unmarked) [Example 226, 2,2-dimethyl-propionic acid 3′-{[2-(3-fluoro-4-methylsulfonamido-phenyl)-propionylamino]-methyl}-6′-trifluoromethyl-3,4,5,6-tetrahydro-2H-[1,2′]bipyridinyl-4-yl ester], the inhibition constant (Ki) in test [1] (setting [5]) stood at 1.5 nM; on vanilloid receptor (VR1) (setting [3]), 2 nM. For the same molecule, the midpoint of inhibition at VR1/TRPV1 receptor (table 4), the IC50, lay at 45.2 nM.
Take `CCCCCCOc1nc(C(C)(C)C)ccc1CNC(=O)C(C)c1ccc(NS(C)(=O)=O)c(F)c1` (centres unmarked) [Example 236, N-(6-tert-butyl-2-hexyloxy-pyridin-3-ylmethyl)-2-(3-fluoro-4-methylsulfonamido-phenyl)-propionamide]: the Ki in test [1] (setting [5]) was determined as 1.4 nM; at vanilloid receptor (VR1) (setting [3]), 2.7 nM. Besides, on VR1/TRPV1 receptor (setting [4]), the inhibition at 1 µM turned out to be 76%. The inhibition at 10 µM on VR1/TRPV1 receptor (@ 10 μM, read-out: inhibition in percent, IC50 (human) after pH stimulus) amounted to 69%.

As a reminder, the Ki is the dissociation constant of the complex between target and ligand, obtained from inhibition or displacement. For orientation: inhibition means the share of the control response that was lost under treatment. The term IC50 denotes the concentration at which inhibition is half-maximal.
